Experiment: wn = mass fraction of the nth substance listed
Conditions: 100 kPa, Liquid; for viscosity: Falling or rolling sphere viscometry; for speed of sound: Frequency=3 MHz, Single path-length method; for mass density: Vibrating tube method

O [water] + CCCCCCCC[n+]1ccc(C)cc1.[Br-]
w2 = 0
Conditions | viscosity [mPa·s]
288.15 K | 1.136
293.15 K | 1.001
298.15 K | 0.89
303.15 K | 0.797
308.15 K | 0.718

O [water] + CCCC[n+]1ccc(C)cc1.[Br-]
w2 = 0
Conditions | viscosity [mPa·s]
288.15 K | 1.136
293.15 K | 1.001
298.15 K | 0.89
303.15 K | 0.797
308.15 K | 0.718

CCCCCCCC[n+]1ccc(C)cc1.[Br-] [1-octyl-4-methylpyridinium bromide] + O
Conditions | mass density, w1 = 0.01 [kg/m3] | mass density, w1 = 0.015 [kg/m3] | mass density, w1 = 0.02 [kg/m3] | speed of sound, w1 = 0.01 [m/s] | speed of sound, w1 = 0.015 [m/s] | speed of sound, w1 = 0.02 [m/s] | viscosity, w1 = 0.01 [mPa·s] | viscosity, w1 = 0.015 [mPa·s] | viscosity, w1 = 0.02 [mPa·s]
288.15 K | 1000.54 | 1001.29 | 1002.09 | 1473.8 | 1477 | 1480.5 | 1.179 | 1.196 | 1.217
293.15 K | 999.566 | 1000.32 | 1001.1 | 1489.1 | 1492.2 | 1495.3 | 1.031 | 1.046 | 1.063
298.15 K | 998.379 | 999.123 | 999.874 | 1502.6 | 1505.3 | 1508.2 | 0.915 | 0.929 | 0.941
303.15 K | 996.945 | 997.706 | 998.407 | 1514.5 | 1516.7 | 1519.5 | 0.817 | 0.833 | 0.844
308.15 K | 995.3 | 996.048 | 996.742 | 1524.5 | 1526.4 | 1528.8 | 0.737 | 0.749 | 0.76

O [water] + CCCCCC[n+]1ccc(C)cc1.[Br-]
w2 = 0
Conditions | viscosity [mPa·s]
288.15 K | 1.136
293.15 K | 1.001
298.15 K | 0.89
303.15 K | 0.797
308.15 K | 0.718

CCCCCC[n+]1ccc(C)cc1.[Br-] [1-hexyl-4-methylpyridinium bromide] + O
Conditions | mass density, w1 = 0.01 [kg/m3] | mass density, w1 = 0.015 [kg/m3] | mass density, w1 = 0.02 [kg/m3] | speed of sound, w1 = 0.01 [m/s] | speed of sound, w1 = 0.015 [m/s] | speed of sound, w1 = 0.02 [m/s] | viscosity, w1 = 0.01 [mPa·s] | viscosity, w1 = 0.015 [mPa·s] | viscosity, w1 = 0.02 [mPa·s]
288.15 K | 1000.9 | 1001.79 | 1002.56 | 1473.1 | 1476.5 | 1479.6 | 1.172 | 1.183 | 1.195
293.15 K | 999.956 | 1000.82 | 1001.8 | 1488.7 | 1491.6 | 1493.8 | 1.028 | 1.039 | 1.05
298.15 K | 998.796 | 999.636 | 1000.38 | 1502.2 | 1504.9 | 1507.5 | 0.913 | 0.924 | 0.934
303.15 K | 997.389 | 998.196 | 998.926 | 1514 | 1516.4 | 1518.9 | 0.817 | 0.824 | 0.834
308.15 K | 995.718 | 996.546 | 997.238 | 1524 | 1526.2 | 1528.6 | 0.738 | 0.746 | 0.753

CCCC[n+]1ccc(C)cc1.[Br-] [1-butyl-4-methylpyridinium bromide] + O
Conditions | mass density, w1 = 0.01 [kg/m3] | mass density, w1 = 0.015 [kg/m3] | mass density, w1 = 0.02 [kg/m3] | speed of sound, w1 = 0.01 [m/s] | speed of sound, w1 = 0.015 [m/s] | speed of sound, w1 = 0.02 [m/s] | viscosity, w1 = 0.01 [mPa·s] | viscosity, w1 = 0.015 [mPa·s] | viscosity, w1 = 0.02 [mPa·s]
288.15 K | 1001.16 | 1002.26 | 1003.42 | 1472.7 | 1475.5 | 1478 | 1.165 | 1.176 | 1.195
293.15 K | 1000.23 | 1001.31 | 1002.47 | 1488.2 | 1490.8 | 1493.3 | 1.024 | 1.037 | 1.044
298.15 K | 999.051 | 1000.13 | 1001.26 | 1501.9 | 1504.1 | 1506.5 | 0.907 | 0.919 | 0.926
303.15 K | 997.647 | 998.68 | 999.765 | 1513.7 | 1515.7 | 1517 | 0.813 | 0.824 | 0.833
308.15 K | 996.019 | 996.958 | 998.102 | 1523.9 | 1525.8 | 1527.7 | 0.734 | 0.745 | 0.75

— the NIST ThermoML archive (doi:10.1016/j.jct.2019.06.029)
